Values quoted from earlier work in publication PMC6594753, “Cystic fibrosis drug ivacaftor stimulates CFTR channels at picomolar concentrations” (eLife, 2019).

Test system: CFTR
Set-up: method as in Yeh et al., 2019
Settings: ref Yeh et al., 2019; cited from earlier work

## CC1(C)Cc2c(sc(NC(=O)c3ccn[nH]3)c2C(N)=O)C(C)(C)O1 [GLPG-1837]
  Hill coefficients of dose response curves for activation: close to unity
